Columns and labels:
[1] = target: T1, Arginase-1 (Homo sapiens, UniProt P05089); assay: Binding affinity to human arginase 1
T1 sequence (P05089 whole entry): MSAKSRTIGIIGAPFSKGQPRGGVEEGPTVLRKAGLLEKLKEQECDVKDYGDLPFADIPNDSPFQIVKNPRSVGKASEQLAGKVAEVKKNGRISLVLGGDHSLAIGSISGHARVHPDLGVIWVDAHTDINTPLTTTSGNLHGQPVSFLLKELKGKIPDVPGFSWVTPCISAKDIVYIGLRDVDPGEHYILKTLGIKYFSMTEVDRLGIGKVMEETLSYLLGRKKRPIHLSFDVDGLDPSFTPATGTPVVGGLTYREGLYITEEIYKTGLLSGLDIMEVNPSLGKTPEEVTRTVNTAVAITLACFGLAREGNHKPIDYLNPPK

[2] = target: T2, Arginase-2, mitochondrial (Homo sapiens, UniProt P78540); assay: Binding affinity to human arginase 2
T2 sequence (P78540 whole entry): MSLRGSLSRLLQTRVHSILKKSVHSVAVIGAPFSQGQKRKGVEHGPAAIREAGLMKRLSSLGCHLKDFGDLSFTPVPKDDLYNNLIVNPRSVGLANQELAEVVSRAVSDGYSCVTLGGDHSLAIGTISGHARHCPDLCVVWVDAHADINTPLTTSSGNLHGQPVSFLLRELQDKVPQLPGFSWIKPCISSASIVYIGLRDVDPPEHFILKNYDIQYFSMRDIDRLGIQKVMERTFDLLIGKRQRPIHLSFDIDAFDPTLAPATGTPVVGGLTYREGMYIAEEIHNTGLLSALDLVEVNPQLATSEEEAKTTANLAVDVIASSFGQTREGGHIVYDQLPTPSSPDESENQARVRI

[3] = target: T3, Arginase (Plasmodium falciparum, UniProt Q8I384); assay: Binding affinity to Plasmodium falciparum arginase
T3 sequence (Q8I384 whole entry): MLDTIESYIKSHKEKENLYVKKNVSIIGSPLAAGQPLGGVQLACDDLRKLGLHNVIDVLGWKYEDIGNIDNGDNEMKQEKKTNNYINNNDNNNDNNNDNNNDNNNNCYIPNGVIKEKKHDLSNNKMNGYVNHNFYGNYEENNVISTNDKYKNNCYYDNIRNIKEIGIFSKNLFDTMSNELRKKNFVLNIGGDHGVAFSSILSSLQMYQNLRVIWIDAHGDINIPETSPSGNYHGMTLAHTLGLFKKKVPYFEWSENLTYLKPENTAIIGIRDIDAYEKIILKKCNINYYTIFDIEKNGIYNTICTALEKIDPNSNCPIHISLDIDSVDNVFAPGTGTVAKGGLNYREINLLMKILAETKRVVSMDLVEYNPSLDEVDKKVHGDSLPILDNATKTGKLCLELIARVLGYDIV

[4] = target: T1, Arginase-1; assay: Binding affinity to human arginase 1 using L-arginine as substrate by surface plasmon resonance assay
[5] = target: T3, Arginase; assay: Inhibition of Plasmodium falciparum arginase using L-arginine as substrate by colorimetric assay

SMILES	Kd [1]	Ki [2]	Kd [3]	Kd [4]	Ki [5]
N[C@@H](CCCCB(O)O)C(=O)O	0.005 µM	0.0085 µM	11 µM	0.018 µM	10 µM
CC(N)(CCCCB(O)O)C(=O)O (racemic)	–	–	–	0.88 µM	260 µM
NC(CCCCB(O)O)(C(=O)O)C(F)F (racemic)	–	–	–	34 µM	–

Source: ChEMBL document CHEMBL1811917 (J Med Chem, 2011)
